From the supplement of paper PMC10307832

Assays:
Assay in all cases: relative viability (nuclei count vs DMSO), 5 days (fraction); higher = more cells survive
[1] = compound: CC1=CC(=NN1)NC2=CC(=NC(=N2)/C=C/C3=CC=CC=C3)N4CCN(CC4)C + NC(=O)Nc1cc(-c2cccc(F)c2)sc1C(=O)N[C@H]1CCCNC1 [AZD7762] (partner 0.2 µM)
Outline: (§1)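 Relative viability was taken as the ratio of nuclei in treated wells to nuclei in vehicle wells. Lung cancer cell lines in 1536-well plates received compounds by pin tool one day after seeding, either one drug alone or a fixed anchor-drug dose plus five library-drug doses (not always all listed) in √10 steps. Nuclei were counted on 4× images after 5 days of treatment, and values are medians of duplicate plates.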

[2] = compound: CC(C)C[C@H](NC(=O)[C@H](Cc1ccccc1)NC(=O)c1cnccn1)B(O)O [Bortezomib] + NC(=O)Nc1cc(-c2cccc(F)c2)sc1C(=O)N[C@H]1CCCNC1 [AZD7762] (partner 0.2 µM)
Outline: as §1

[3] = compound: COC1=CC(c2cc3ccccc3[nH]2)=N/C1=C\c1[nH]c(C)cc1C [Obatoclax] + Nc1nc2[nH]cc(CCc3ccc(C(=O)N[C@@H](CCC(=O)O)C(=O)O)cc3)c2c(=O)[nH]1 [Pemetrexed] (partner 0.2 µM)
Outline: as §1

[4] = compound: CC(C)C[C@H](NC(=O)[C@H](Cc1ccccc1)NC(=O)c1cnccn1)B(O)O [Bortezomib] + CCNC(=O)c1noc(-c2cc(C(C)C)c(O)cc2O)c1-c1ccc(CN2CCOCC2)cc1 [Luminespib] (partner 0.01 µM)
Outline: as §1

Cell Line	relative viability ([1]; first compound 0.08 µM)	relative viability ([1]; first compound 0.253 µM)	relative viability ([1]; first compound 0.8 µM)	relative viability ([1]; first compound 2.53 µM)	relative viability ([1]; first compound 8 µM)	relative viability ([2]; first compound 0.0002 µM)	relative viability ([2]; first compound 0.000632 µM)	relative viability ([2]; first compound 0.002 µM)	relative viability ([2]; first compound 0.006325 µM)	relative viability ([2]; first compound 0.02 µM)	relative viability ([3]; first compound 0.01 µM)	relative viability ([3]; first compound 0.03162 µM)	relative viability ([3]; first compound 0.1 µM)	relative viability ([3]; first compound 0.3162 µM)	relative viability ([3]; first compound 1 µM)	relative viability ([4]; first compound 0.0002 µM)	relative viability ([4]; first compound 0.000632 µM)	relative viability ([4]; first compound 0.002 µM)	relative viability ([4]; first compound 0.006325 µM)	relative viability ([4]; first compound 0.02 µM)
NCI-H2126	0.982	1.06	1.02	0.825	0.873	1	1.01	0.968	0.942	0.516	0.661	0.62	0.703	0.704	0.649	0.864	0.904	0.821	0.543	0.213
NCI-H2170	0.875	0.971	0.556	0.243	0.114	0.804	0.685	0.943	0.54	0.113	0.257	0.243	0.266	0.276	0.283	0.46	0.534	0.744	0.516	0.202
NCI-H2342	0.368	0.535	0.589	0.371	0.256	0.64	0.486	0.478	0.582	0.433	0.836	0.775	0.683	0.641	0.757	1.01	0.748	0.699	0.791	0.382
NCI-H2347	0.544	0.788	0.911	0.484	0.32	0.888	0.695	0.73	0.553	0.276	0.399	0.419	0.37	0.392	0.38	0.558	0.607	0.411	0.25	0.208
NCI-H2405	0.742	0.766	0.768	0.357	0.118	0.699	0.714	0.919	0.165	0.159	1.11	1.01	–	1.07	0.927	0.685	0.763	0.615	0.227	0.189
NCI-H3122	0.963	0.943	1	0.944	0.408	0.976	1.09	1.03	0.784	0.11	0.19	0.202	0.2	0.203	0.221	0.103	0.0765	0.105	0.118	0.113
PC-3 [JPC-3]	0.709	0.805	0.764	0.554	0.303	0.773	0.829	0.531	0.225	0.199	1.07	0.933	0.925	0.645	0.476	0.663	0.669	0.505	0.226	0.127
PC-14	0.346	0.446	0.354	0.28	0.0653	0.279	0.336	0.364	0.123	0.0742	0.129	0.147	0.125	0.149	0.109	0.153	0.163	0.13	0.0991	0.109
RERF-LC-KJ	0.854	1.05	0.915	0.651	0.232	0.819	1.12	1.12	0.966	0.409	0.466	0.461	0.448	0.457	0.45	1.16	1.21	0.986	0.291	0.273
SW 900	0.534	0.526	0.649	0.314	0.104	0.572	0.627	0.188	0.178	0.158	0.494	0.303	0.527	0.48	0.446	0.167	0.198	0.184	0.163	0.16
